Assay results from patent US20230270804A1, “ANTI-HYPERCHOLESTEROLEMIA COMPOSITION AND A METHOD OF MANUFACTURING THE SAME” (NBI BIOSCIENCES PRIVATE LIMITED, priority 2020, published 2023).

Columns and labels:
[1] = tested on: hypercholesterolemia induced wistar rats' models; experiment: Therapeutic study: lipid profile (TC, TG, HDL-C, LDL-C, VLDL); assay type: in vivo, Wistar strain albino rats
Description: Wistar strain albino rats of body weight ranging from 190-225 g were selected for the present study. The temperature and humidity were kept at optimum (22+2° C.; 40-70% and animals were exposed to natural chronological day night cycles. The experiments were carried out in conformity with the Institutional Animal Ethics Committee.
The 6 groups were as follows: • 1. Normal Control • 2.
1.5-2 ml blood sample was taken from retino-orbital chamber in vials for biochemical estimations at every 15 days. Investigations performed included detailed Total Cholesterol—TC (mg/dl), Triglyceride—TG (mg/dl), High Density Lipoprotein—HDL-C (mg/dl), Low Density Lipoprotein—LDL-C (mg/dl), Very Low-Density Lipoprotein—VLDL (mg/dl), WBC (10^3/u1), RBC (10^6/u1), Hb (g/dl), PCV (%), Reticulocyte (%), Platelet count 10^5/mm^3, Clotting time (Sec), Neutrophils, Lymphocyte, Monocyte and Eosinophil. The estimations were done with Ecoline kits from Erba Mannheim, ERBA diagnostics Mannheml, Germany using Semi Autoanalyzer RX50 of MicroLabs Instruments and COUNCELL21 of Tulip Diagnostics Pvt. Ltd. Lipid peroxidation (Plasma & Liver), HMG Co-Reductase, Creatine phosphokinase (CPK), Lactate dehydrogenase (LDH), SGOT and SGPT were estimated at the end of both the studies using the kits.

[2] = Therapeutic study: organ body weight after necropsy; assay type: in vivo, Wistar strain albino rats
Description: The prophylactic study which lasted 90 days used 6 rats per group. […] The 6 groups were as follows: • 1. Normal Control • 2. High Fat Diet (HFD) 1 ml 1/d+Normal Diet • 3. High Fat Diet (HFD)+Normal Diet+the composition of the present invention (OD) • 4, High Fat Diet (HFD)+Normal Diet+the composition of the present invention (BD) • 5. […] The body weights were recorded to the nearest gram (g) with proper tare to 0.0000 with the subject at steady state on the weighing machine. The same weighing machine was used for all the subjects. The machine was tested with a known set of weights for any error.

Structure (SMILES): CC(C)c1c(C(=O)Nc2ccccc2)c(-c2ccccc2)c(-c2ccc(F)cc2)n1CC[C@@H](O)C[C@@H](O)CC(=O)O [Statin, Atorvastatin]
- HDL-C ([1]; HFD continued, day 0): 40.33 ± 2.08 mg/dL
- LDL-C ([1]; HFD continued, day 0): 91.67 ± 3.06 mg/dL
- TC ([1]; HFD continued, day 0): 139.67 ± 4.04 mg/dL
- TG ([1]; HFD continued, day 0): 38.67 ± 2.08 mg/dL
- VLDL ([1]; HFD continued, day 0): 3.87 ± 0.31 mg/dL
- HDL-C ([1]; HFD continued, day 15): 40.83 ± 1.15 mg/dL
- LDL-C ([1]; HFD continued, day 15): 92.83 ± 3.82 mg/dL
- TC ([1]; HFD continued, day 15): 138.00 ± 4.00 mg/dL
- TG ([1]; HFD continued, day 15): 38.00 ± 1.80 mg/dL
- HDL-C ([1]; HFD continued, day 30): 42.45 ± 0.44 mg/dL
- LDL-C ([1]; HFD continued, day 30): 91.33 ± 0.21 mg/dL
- TC ([1]; HFD continued, day 30): 134.00 ± 3.00 mg/dL
- TG ([1]; HFD continued, day 30): 37.30 ± 0.44 mg/dL
- VLDL ([1]; HFD continued, day 30): 3.91 ± 0.05 mg/dL
- HDL-C ([1]; HFD continued, day 45): 40.20 ± 2.07 mg/dL
- LDL-C ([1]; HFD continued, day 45): 90.37 ± 0.85 mg/dL
- TC ([1]; HFD continued, day 45): 126.33 ± 4.51 mg/dL
- TG ([1]; HFD continued, day 45): 34.73 ± 1.37 mg/dL
- VLDL ([1]; HFD continued, day 45): 3.86 ± 0.11 mg/dL
- HDL-C ([1]; HFD continued, day 60): 39.82 ± 1.88 mg/dL
- LDL-C ([1]; HFD continued, day 60): 89.52 ± 1.20 mg/dL
- TC ([1]; HFD continued, day 60): 125.15 ± 4.20 mg/dL
- TG ([1]; HFD continued, day 60): 34.41 ± 1.26 mg/dL
- VLDL ([1]; HFD continued, day 60): 3.82 ± 0.10 mg/dL
- HDL-C ([1]; HFD discontinued, day 0): 41.67 ± 1.53 mg/dL
- LDL-C ([1]; HFD discontinued, day 0): 90.67 ± 3.21 mg/dL
- TC ([1]; HFD discontinued, day 0): 134.33 ± 4.04 mg/dL
- TG ([1]; HFD discontinued, day 0): 38.33 ± 2.52 mg/dL
- VLDL ([1]; HFD discontinued, day 0): 3.83 ± 0.38 mg/dL
- HDL-C ([1]; HFD discontinued, day 15): 40.17 ± 0.58 mg/dL
- LDL-C ([1]; HFD discontinued, day 15): 90.60 ± 3.55 mg/dL
- TC ([1]; HFD discontinued, day 15): 133.00 ± 4.58 mg/dL
- TG ([1]; HFD discontinued, day 15): 37.50 ± 2.00 mg/dL
- VLDL ([1]; HFD discontinued, day 15): 3.91 ± 0.34 mg/dL
- HDL-C ([1]; HFD discontinued, day 30): 41.23 ± 0.38 mg/dL
- LDL-C ([1]; HFD discontinued, day 30): 85.03 ± 0.21 mg/dL
- TC ([1]; HFD discontinued, day 30): 129.33 ± 2.08 mg/dL
- TG ([1]; HFD discontinued, day 30): 35.97 ± 0.74 mg/dL
- VLDL ([1]; HFD discontinued, day 30): 3.88 ± 0.04 mg/dL
- HDL-C ([1]; HFD discontinued, day 45): 39.70 ± 0.46 mg/dL
- TC ([1]; HFD discontinued, day 45): 117.67 ± 6.66 mg/dL
- TG ([1]; HFD discontinued, day 45): 34.53 ± 0.83 mg/dL
- VLDL ([1]; HFD discontinued, day 45): 3.69 ± 0.05 mg/dL
- HDL-C ([1]; HFD discontinued, day 60): 38.94 ± 0.82 mg/dL
- LDL-C ([1]; HFD discontinued, day 60): 83.69 ± 1.18 mg/dL
- TC ([1]; HFD discontinued, day 60): 116.49 ± 6.04 mg/dL
- TG ([1]; HFD discontinued, day 60): 34.19 ± 0.83 mg/dL
- level of HDL ([1]; therapeutic study, 60 days): 39 mg/dL
- reduction in LDL ([1]; therapeutic study, 60 days): 8%
- reduction in total cholesterol ([1]; therapeutic study, 60 days): 13%
- Intestine (organ body weight after necropsy) ([2]; HFD Continued): 2.00 ± 0.02
- Kidney (organ body weight after necropsy) ([2]; HFD Continued): 2.82 ± 0.06 g/100 g bd. wt
- Liver (organ body weight after necropsy) ([2]; HFD Continued): 4.51 ± 0.12 g/100 g
- Lungs (organ body weight after necropsy) ([2]; HFD Continued): 0.65 ± 0.03 g/100 g bd. wt
- Pancrease (organ body weight after necropsy) ([2]; HFD Continued): 0.89 ± 0.05 g/100 g bd. wt
- Spleen (organ body weight after necropsy) ([2]; HFD Continued): 1.19 ± 0.02
- Intestine (organ body weight after necropsy) ([2]; HFD Discontinued): 2.00 ± 0.02
- Kidney (organ body weight after necropsy) ([2]; HFD Discontinued): 2.84 ± 0.04 g/100 g bd. wt
- Liver (organ body weight after necropsy) ([2]; HFD Discontinued): 4.37 ± 0.05 g/100 g
- Lungs (organ body weight after necropsy) ([2]; HFD Discontinued): 0.66 ± 0.03 g/100 g bd. wt
- Pancrease (organ body weight after necropsy) ([2]; HFD Discontinued): 0.91 ± 0.03 g/100 g bd. wt
- Spleen (organ body weight after necropsy) ([2]; HFD Discontinued): 1.17 ± 0.03
